{"source": "ChEMBL document CHEMBL1201862", "about": "“PubChem BioAssay data set” (2004)", "test_in_all_cases": "inhibition of tumour cell growth, NCI panel, 48 h", "key": {"[1]": {"system": "A498"}, "[2]": {"system": "A549"}, "[3]": {"system": "CAKI-1"}, "[4]": {"system": "CCRF-CEM"}, "[5]": {"system": "COLO 205"}, "[6]": {"system": "DLD-1"}, "[7]": {"system": "DMS-114"}, "[8]": {"system": "DMS-273"}, "[9]": {"system": "EKVX"}, "[10]": {"system": "HCC 2998"}, "[11]": {"system": "HCT-116"}, "[12]": {"system": "HCT-15"}, "[13]": {"system": "HL-60"}, "[14]": {"system": "HOP-18"}, "[15]": {"system": "HOP-62"}, "[16]": {"system": "HOP-92"}, "[17]": {"system": "HT-29"}, "[18]": {"system": "IGROV-1"}, "[19]": {"system": "K562"}, "[20]": {"system": "KM-20L2"}, "[21]": {"system": "KM12"}, "[22]": {"system": "LOX IMVI"}, "[23]": {"system": "M19-MEL"}, "[24]": {"system": "MOLT-4"}, "[25]": {"system": "NCI-H226"}, "[26]": {"system": "NCI-H23"}, "[27]": {"system": "NCI-H460"}, "[28]": {"system": "NCI/ADR-RES"}, "[29]": {"system": "OVCAR-3"}, "[30]": {"system": "OVCAR-4"}, "[31]": {"system": "OVCAR-5"}, "[32]": {"system": "OVCAR-8"}, "[33]": {"system": "RPMI-8226"}, "[34]": {"system": "RXF 393"}, "[35]": {"system": "SF-268"}, "[36]": {"system": "SF-295"}, "[37]": {"system": "SK-MEL-28"}, "[38]": {"system": "SK-MEL-2"}, "[39]": {"system": "SK-OV-3"}, "[40]": {"system": "SN12C"}, "[41]": {"system": "SNB-75"}, "[42]": {"system": "SNB-78"}, "[43]": {"system": "SW-620"}, "[44]": {"system": "U-251"}, "[45]": {"system": "UACC-257"}, "[46]": {"system": "UACC-62"}, "[47]": {"system": "UO-31"}, "[48]": {"system": "XF498"}, "[49]": {"system": "MCF7"}, "[50]": {"system": "Malme-3M"}, "[51]": {"system": "NCI-H522"}, "[52]": {"system": "SF-539"}, "[53]": {"system": "SK-MEL-5"}, "[54]": {"system": "SNB-19"}}, "note": "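In this assay, cells in 96-well plates receive the compound at five concentrations for 48 hours. Endpoints are linearly interpolated between the surrounding concentrations. Here, GI50 denotes the concentration required for 50% inhibition of growth.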 Activity calls are given as the source filed them. Rule as the data show it: active = GI50 up to about 1.1 µM and inactive = higher."}
{"compound": "C/C=C(\\C)C(=O)OC1C2C(C)=CC(=O)C(O)C2(C)C2C3(O)OCC24C1OC(=O)C(OC(C)=O)C4C(C)C3O", "note": "(configuration not stated)", "values": [{"measurement": "GI50", "setting": "[1]", "value": "0.0611 µM (active)"}, {"measurement": "GI50", "setting": "[2]", "value": "0.0873 µM (active)"}, {"measurement": "GI50", "setting": "[3]", "value": "0.197 µM (active)"}, {"measurement": "GI50", "setting": "[4]", "value": "0.0375 µM (active)"}, {"measurement": "GI50", "setting": "[5]", "value": "0.0719 µM (active)"}, {"measurement": "GI50", "setting": "[6]", "value": "0.0375 µM (active)"}, {"measurement": "GI50", "setting": "[7]", "value": "0.0375 µM (active)"}, {"measurement": "GI50", "setting": "[8]", "value": "0.0375 µM (active)"}, {"measurement": "GI50", "setting": "[9]", "value": "0.046 µM (active)"}, {"measurement": "GI50", "setting": "[10]", "value": "0.0415 µM (active)"}, {"measurement": "GI50", "setting": "[11]", "value": "0.0375 µM (active)"}, {"measurement": "GI50", "setting": "[12]", "value": 0.0741, "unit": "µM"}, {"measurement": "GI50", "setting": "[13]", "value": "0.0375 µM (active)"}, {"measurement": "GI50", "setting": "[14]", "value": "0.0811 µM (active)"}, {"measurement": "GI50", "setting": "[15]", "value": "0.0375 µM (active)"}, {"measurement": "GI50", "setting": "[16]", "value": "0.0388 µM (active)"}, {"measurement": "GI50", "setting": "[17]", "value": "0.0385 µM (active)"}, {"measurement": "GI50", "setting": "[18]", "value": "0.0375 µM (active)"}, {"measurement": "GI50", "setting": "[19]", "value": "0.0375 µM (active)"}, {"measurement": "GI50", "setting": "[20]", "value": "0.0471 µM (active)"}, {"measurement": "GI50", "setting": "[21]", "value": "0.0375 µM (active)"}, {"measurement": "GI50", "setting": "[22]", "value": "0.0375 µM (active)"}, {"measurement": "GI50", "setting": "[23]", "value": "0.0375 µM (active)"}, {"measurement": "GI50", "setting": "[24]", "value": "0.0375 µM (active)"}, {"measurement": "GI50", "setting": "[25]", "value": "0.0375 µM (active)"}, {"measurement": "GI50", "setting": "[26]", "value": "0.043 µM (active)"}, {"measurement": "GI50", "setting": "[27]", "value": "0.0375 µM (active)"}, {"measurement": "GI50", "setting": "[28]", "value": "1.05 µM (active)"}, {"measurement": "GI50", "setting": "[29]", "value": "0.0375 µM (active)"}, {"measurement": "GI50", "setting": "[30]", "value": "0.11 µM (active)"}, {"measurement": "GI50", "setting": "[31]", "value": "0.111 µM (active)"}, {"measurement": "GI50", "setting": "[32]", "value": "0.0396 µM (active)"}, {"measurement": "GI50", "setting": "[33]", "value": "0.0375 µM (active)"}, {"measurement": "GI50", "setting": "[34]", "value": "0.0375 µM (active)"}, {"measurement": "GI50", "setting": "[35]", "value": "0.0444 µM (active)"}, {"measurement": "GI50", "setting": "[36]", "value": "0.0402 µM (active)"}, {"measurement": "GI50", "setting": "[37]", "value": "0.0375 µM (active)"}, {"measurement": "GI50", "setting": "[38]", "value": "0.0377 µM (active)"}, {"measurement": "GI50", "setting": "[39]", "value": "0.144 µM (active)"}, {"measurement": "GI50", "setting": "[40]", "value": "0.0741 µM (active)"}, {"measurement": "GI50", "setting": "[41]", "value": "0.0389 µM (active)"}, {"measurement": "GI50", "setting": "[42]", "value": "0.0483 µM (active)"}, {"measurement": "GI50", "setting": "[43]", "value": "0.0594 µM (active)"}, {"measurement": "GI50", "setting": "[44]", "value": "0.0375 µM (active)"}, {"measurement": "GI50", "setting": "[45]", "value": "0.0375 µM (active)"}, {"measurement": "GI50", "setting": "[46]", "value": "0.0375 µM (active)"}, {"measurement": "GI50", "setting": "[47]", "value": "0.195 µM (active)"}, {"measurement": "GI50", "setting": "[48]", "value": "0.0396 µM (active)"}]}
{"compound": "O=C1c2ccccc2C(O)(C(=O)O)C1(O)CC=C(Cl)Cl", "note": "(configuration not stated)", "values": [{"measurement": "GI50", "setting": "[1]", "value": "> 125 µM (inactive)"}, {"measurement": "GI50", "setting": "[2]", "value": "> 125 µM (inactive)"}, {"measurement": "GI50", "setting": "[3]", "value": "> 125 µM (inactive)"}, {"measurement": "GI50", "setting": "[4]", "value": "> 125 µM (inactive)"}, {"measurement": "GI50", "setting": "[5]", "value": "> 125 µM (inactive)"}, {"measurement": "GI50", "setting": "[6]", "value": "> 125 µM (inactive)"}, {"measurement": "GI50", "setting": "[7]", "value": "> 125 µM (inactive)"}, {"measurement": "GI50", "setting": "[8]", "value": "> 125 µM (inactive)"}, {"measurement": "GI50", "setting": "[9]", "value": "> 125 µM (inactive)"}, {"measurement": "GI50", "setting": "[10]", "value": "> 125 µM (inactive)"}, {"measurement": "GI50", "setting": "[11]", "value": "> 125 µM (inactive)"}, {"measurement": "GI50", "setting": "[12]", "value": "> 125", "unit": "µM"}, {"measurement": "GI50", "setting": "[13]", "value": "> 125 µM (inactive)"}, {"measurement": "GI50", "setting": "[14]", "value": "> 125 µM (inactive)"}, {"measurement": "GI50", "setting": "[15]", "value": "> 125 µM (inactive)"}, {"measurement": "GI50", "setting": "[16]", "value": "> 74.6 µM (inactive)"}, {"measurement": "GI50", "setting": "[17]", "value": "> 125 µM (inactive)"}, {"measurement": "GI50", "setting": "[18]", "value": "> 125 µM (inactive)"}, {"measurement": "GI50", "setting": "[19]", "value": "> 125 µM (inactive)"}, {"measurement": "GI50", "setting": "[20]", "value": "> 125 µM (inactive)"}, {"measurement": "GI50", "setting": "[21]", "value": "> 125 µM (inactive)"}, {"measurement": "GI50", "setting": "[22]", "value": "> 125 µM (inactive)"}, {"measurement": "GI50", "setting": "[23]", "value": "> 125 µM (inactive)"}, {"measurement": "GI50", "setting": "[49]", "value": "> 125 µM (inactive)"}, {"measurement": "GI50", "setting": "[24]", "value": "> 125 µM (inactive)"}, {"measurement": "GI50", "setting": "[50]", "value": "> 125 µM (inactive)"}, {"measurement": "GI50", "setting": "[25]", "value": "> 125 µM (inactive)"}, {"measurement": "GI50", "setting": "[26]", "value": "> 125 µM (inactive)"}, {"measurement": "GI50", "setting": "[27]", "value": "> 125 µM (inactive)"}, {"measurement": "GI50", "setting": "[51]", "value": "> 125 µM (inactive)"}, {"measurement": "GI50", "setting": "[28]", "value": "> 125 µM (inactive)"}, {"measurement": "GI50", "setting": "[29]", "value": "> 125 µM (inactive)"}, {"measurement": "GI50", "setting": "[30]", "value": "> 125 µM (inactive)"}, {"measurement": "GI50", "setting": "[31]", "value": "> 125 µM (inactive)"}, {"measurement": "GI50", "setting": "[32]", "value": "> 125 µM (inactive)"}, {"measurement": "GI50", "setting": "[33]", "value": "> 125 µM (inactive)"}, {"measurement": "GI50", "setting": "[34]", "value": "> 125 µM (inactive)"}, {"measurement": "GI50", "setting": "[35]", "value": "> 125 µM (inactive)"}, {"measurement": "GI50", "setting": "[36]", "value": "> 125 µM (inactive)"}, {"measurement": "GI50", "setting": "[52]", "value": "> 125 µM (inactive)"}, {"measurement": "GI50", "setting": "[37]", "value": "> 125 µM (inactive)"}, {"measurement": "GI50", "setting": "[38]", "value": "> 125 µM (inactive)"}, {"measurement": "GI50", "setting": "[53]", "value": "> 125 µM (inactive)"}, {"measurement": "GI50", "setting": "[39]", "value": "> 125 µM (inactive)"}, {"measurement": "GI50", "setting": "[40]", "value": "> 125 µM (inactive)"}, {"measurement": "GI50", "setting": "[54]", "value": "> 78.9 µM (inactive)"}, {"measurement": "GI50", "setting": "[41]", "value": "> 125 µM (inactive)"}, {"measurement": "GI50", "setting": "[42]", "value": "> 125 µM (inactive)"}, {"measurement": "GI50", "setting": "[43]", "value": "> 125 µM (inactive)"}, {"measurement": "GI50", "setting": "[44]", "value": "> 28.2 µM (inactive)"}, {"measurement": "GI50", "setting": "[45]", "value": "> 125 µM (inactive)"}, {"measurement": "GI50", "setting": "[46]", "value": "> 125 µM (inactive)"}, {"measurement": "GI50", "setting": "[47]", "value": "> 112 µM (inactive)"}, {"measurement": "GI50", "setting": "[48]", "value": "> 125 µM (inactive)"}]}
